According to patent publication US8841302B2, “HCV inhibitor and therapeutic agent combinations” (PTC Therapeutics, Inc., priority 2009, dated 2014):

Test system: HCV replicon RNA in replicon cells
Experiment: Replicon RNA response to antiviral agent(s), real time PCR (Taqman assay)
Type: cell-based
Conditions: replicon cells treated 3 days
Method: Replicon cells were seeded at ˜5000 cells/well in 96-well collagen I-coated Biocoat plates (Becton Dickinson). At 24 hrs post-seeding, a series of replicon cells were treated with a HCV protease inhibitor and a HCV inhibitor. The final concentration of DMSO was 0.5%, fetal bovine serum was 10%, and G418 (an aminoglycoside used as a selective agent) was 500 μg/mL.
To each concentration of Compound 10p, HCV inhibitor Compound 31 was titrated. After 3 days, the cells were washed with PBS and lysed in 1× Cell Lysis Buffer (Ambion cat #8721).
The replicon RNA level was measured using real time PCR (Taqman assay). The ampicon was located in NS5b. The PCR primers used were: 5B.2F, ATGGACAGGCGCCCTGA (SEQ ID NO: 1); 5B.2R, […] (SEQ ID NO: 2); the probe sequence was FAM-labeled CACGCCATGCGCTGCGG (SEQ ID NO: 3). GAPDH RNA was used as endogenous control and was amplified in the same reaction as NS5b (multiplex PCR) using primers and VIC-labeled probe recommended by the manufacturer (PE Applied Biosystem). The real-time RT-PCR reactions were run on ABI PRISM 7900HT Sequence Detection System using the following program: 48° C. for 30 min, 95° C. for 10 min, 40 cycles of 95° C. for 15 sec, 60° C. for 1 min. The ΔCT values (CT5B-CTGAPDH) were plotted against test compound concentration and fitted to the sigmoid dose response model using Graphpad PRISM software (Graphpad Software Inc.). The half maximal inhibitory concentration (IC50) is the concentration necessary to achieve ΔCT=1 over the projected baseline. The 90% maximal inhibitory concentration (IC90) is the concentration necessary to achieve ΔCT=3.2 over the baseline. Alternatively, to quantitate the absolute amount of replicon RNA, a standard curve was established by including serially diluted T7 transcripts of replicon RNA in the Taqman assay. All Taqman reagents were from PE Applied Biosystem.

Row | SMILES | relative inhibition (logarithmic scale) of replicon RNA level (Cpd 10p 0.19 μM alone (Compound 31 0 μM)) | relative inhibition (logarithmic scale) of replicon RNA level (Cpd 10p 1.5 μM alone (Compound 31 0 μM)) | relative inhibition (logarithmic scale) of replicon RNA level (Compound 31 0.045 μM in combination with Cpd 10p 0.19 μM) | relative inhibition (logarithmic scale) of replicon RNA level (Compound 31 0.045 μM in combination with Cpd 10p 1.5 μM) | relative inhibition (logarithmic scale) of replicon RNA level (Compound 31 0.405 μM in combination with Cpd 10p 0.19 μM) | relative inhibition (logarithmic scale) of replicon RNA level (Compound 31 0.405 μM in combination with Cpd 10p 1.5 μM)
1 | CC(C)(C)NC(=O)N[C@H](C(=O)N1C[C@H]2[C@@H]([C@H]1C(=O)NC(CC1CCC1)C(=O)C(N)=O)C2(C)C)C(C)(C)C (stereo partly drawn) [Cpd 10p, (1R,2S,5S)-N-(4-amino-1-cyclobutyl-3,4-dioxobutan-2-yl)-3-((S)-2-(3-tert-butylureido)-3,3-dimethylbutanoyl)-6,6-dimethyl-3-azabicyclo[3.1.0]hexane-2-carboxamide, reference compound] | −0.11 | −1.52 |  |  |  | 
2 | N#Cc1c(-c2ccc(S(=O)(=O)NC(CF)CF)cn2)n(C2CCC2)c2cc(OC(F)F)ccc12 [Compound 31, 6-[3-cyano-1-cyclobutyl-6-(difluoromethoxy)-1H-indol-2-yl]-N-(1,3-difluoropropan-2-yl)pyridine-3-sulfonamide] |  |  | −1.16 | −1.72 | −1.73 | −2.02
